Source: patent US9482924B2, “Colored composition and image display structure” (FUJIFILM CORPORATION, priority 2011, dated 2016)

Assays:
Solubility in n-hexane = details: in n-hexane at 25° C. and 0.1 MPa
Description: Hereinafter, “a solubility in n-hexane at 25° C. and 0.1 MPa” of a pigment is also simply referred to as “solubility”.
The solubility of each azomethine pigment in n-hexane, which is a non-polar solvent, was measured by the following method.
Each pigment was dissolved in n-hexane that had been heated to 50° C. to prepare a saturated solution, and then the saturated solution obtained was left to stand in an environment of 0.1 MPa at 25° C. for 1 hour. The precipitated pigment was filtered and the precipitation amount was measured, thereby calculating the solubility (% by mass) of each pigment in n-hexane at 25° C. and 0.1 MPa.

[1] = Absorption maximum wavelength, absorbance and absorption coefficient of colored solution; type: physicochemical; details: n-hexane colored solution; for Absorption coefficient (ε): calculated in accordance with the Lambert-Beer law
Description: Azomethine pigments (preparing the above exemplified compounds D-1, D-5, D-11, D-20, D-26, D-38, D-43, D-46, D-49, D-55, D-56, D-57 and D-65 shown in the following Table) and n-hexane as an organic solvent were mixed to prepare a 15% by mass azomethine pigment-n-hexane solution (colored composition), thereby manufacturing 13 kinds of colored solutions.
For the colored solution (colored composition), the absorption maximum wavelength (λmax) and the absorbance were measured with a visible light absorbance spectrometer (UV-1800PC, manufactured by Shimadzu Corporation) and the absorption coefficient (ε) was calculated in accordance with the Lambert-Beer law.

[2] = Measurement of relative permittivity; type: physicochemical; details: pigment itself, extrapolated from 5, 7.5 and 10% by mass solutions in n-hexane; 20° C., 40% RH, 1 kHz
Description: The relative permittivity is a value obtained by injecting the colored composition into a glass cell having a cell gap of 10 μm to which an indium tin oxide (ITO) transparent electrode is attached and measuring, at 20° C. and 40% RH, the electric capacitance of the cell with the colored composition thus-obtained using a TYPE 2353LCR METER (measuring frequency: 1 kHz) manufactured by NF Co., Ltd.
The azomethine pigments shown in the following Table 7 were prepared and solutions of 5% by mass, 7.5% by mass and 10% by mass of each pigment dissolved in n-hexane (all were colored solutions) were prepared. Each colored solution obtained was injected into a glass cell having a cell gap of 10 μm to which an indium tin oxide (ITO) transparent electrode was attached. For each of the glass cells, the electric capacitance was measured (measuring frequency: 1 kHz). Further, a cell for reference was prepared by injecting only n-hexane into a glass cell which was the same kind of glass cell as described above, and the electric capacitance of the cell for reference was also measured. The electric capacitance of the cell obtained was measured at 20° C. and 40% RH using a type 2353LCR meter (measuring frequency: 1 kHz) manufacture by NF Co., Ltd.
The relative permittivity of each colored solution was obtained by the above measurement, and the relative permittivity of each azomethine pigment itself was calculated from the above relative permittivity by extrapolation.

[3] = Measurement of dynamic viscosity; type: physicochemical; details: solution of 10% by mass of pigment in decane
Description: Note that, the dynamic viscosity is a value measured by adjusting a solution at 10% by mass of the pigment in decane to 20° C. using a viscometer (500 TYPE, manufactured by Toki Sangyo Co., Ltd.).
For the azomethine pigments shown in the following Table 7, a solution of 10% by mass of each pigment in decane was prepared and an R-type viscometer (500 TYPE, manufactured by Toki Sangyo Co., Ltd.) was used to measure the viscosity thereof at 20° C.

SMILES | Solubility (% by mass) (Solubility in n-hexane) | Absorption maximum wavelength [λmax] [1] [nm] | Absorption coefficient (ε) [1] | Relative permittivity [2] | Viscosity (20° C.) [3] [mPa · s]
CCCCN(CCCC)c1ccc(N=C2C=C(C(=O)NC)C(=O)c3ccccc32)cc1 [Pigment D-104, reference compound] | ≤ 0.05 % by mass | – | – | – | –
CCCCCCOc1cc(N(CCCCCC)CCCCCC)ccc1N=C1C(C#N)=Nn2nc(C(C)(C)C)nc21 [Pigment D-56] | 3.5 % by mass | 550 | 7.2 × 10^4 | – | –
CCCCCCCCN(CCCCCCCC)c1ccc(N=C2C(=O)N(c3ccccc3)N=C2C)c(C)c1 [Pigment D-1] | 9.5 % by mass | 500 | 6.05 × 10^4 | 8.6 | 1.3
CCCCCCCCCCCCCCCCNC(=O)C1=CC(=Nc2ccc(N(CC)CC)cc2CC)c2ccccc2C1=O [Pigment D-38] | – | 630 | 2.9 × 10^4 | 4.4 | 1.5
CCCCCCN(CCCCCC)c1ccc(N=C2C(=O)N(c3ccccc3)N=C2C(C)(C)C)c(C)c1 [Pigment D-11] | 1.1 % by mass | 502 | 5.60 × 10^4 | – | –
CCCCCCCCN1CCc2cc(/N=C3/C(C)=Nn4nc(C(C)CNC(=O)C(CCCCCC)Oc5ccc(C(C)(C)CC)cc5C(C)(C)CC)nc43)ccc21 [Pigment D-57] | 12.3 % by mass | 540 | 7.55 × 10^4 | 6.2 | 1.2
CCCCCCCCCCCCCCCCCCNC(=O)C1=CC(=Nc2ccc(N(CC)CC)cc2OC)c2ccccc2C1=O [Pigment D-43] | – | 658 | 2.6 × 10^4 | 4.7 | 1.5
CCCCCCCCNC(=O)C1=CC(=Nc2ccc(N(CCCCCCCC)CCCCCCCC)cc2)C=C(C)C1=O [Pigment D-26] | – | 626 | 2.8 × 10^4 | 6 | 1.4
CCN(CC)c1ccc(N=C2C=C(NC(C)=O)C(=O)C(Cl)=C2C)c(C)c1 [Pigment D-103, reference compound] | ≤ 0.05 % by mass | – | – | – | –
CCCCCCCCN(CCCCCCCC)c1ccc(N=C2C(C(C)(C)C)=Nn3nc(-c4ccccc4)nc32)c(C)c1 [Pigment D-49] | 11 % by mass | 518 | 7.2 × 10^4 | 6.7 | 1.2
CCCCCCCCN1N=C(C(C)(C)C)C(=Nc2ccc(N(CC)CC)cc2C)C1=O [Pigment D-5] | 8.5 % by mass | 502 | 5.20 × 10^4 | – | –
CCN(CC)c1ccc(N=C2C(=O)N(c3ccccc3)N=C2C)c(C)c1 [Pigment D-101, reference compound] | 0.05 or less % by mass | – | – | – | –
CCCCCCN(CCCCCC)c1ccc(N=C2C=C(C(=O)Nc3ccccc3)C(=O)c3ccccc32)c(C)c1 [Pigment D-46] | – | 635 | 2.8 × 10^4 | – | –
CCN(CC)c1ccc(N=C2C(=O)ON=C2C(C)(C)C)cc1 [Pigment D-102, reference compound] | ≤ 0.05 % by mass | – | – | – | –
CCCCCCCCOc1cc(N(CCCC)CCCC)ccc1N=C1C(=O)ON=C1c1ccccc1 [Pigment D-20] | – | 480 | 4.80 × 10^4 | 8.8 | 1.2
CCN(CC)c1ccc(/N=C2\C(C#N)=C(C(=O)OC)c3nc(-c4ccc(C(C)(C)C)cc4)nn32)c(C)c1 [Pigment D-106, reference compound] | ≤ 0.05 % by mass | – | – | – | –
CCCCCCN(CCCCCC)c1cc(C)c(N=C2C(C#N)=C(C(=O)OC3C(C(C)(C)C)CC(C)CC3C(C)(C)C)c3nc(C(C)(C)C)nn32)c(C)c1 [Pigment D-65] | ≥ 15.0 % by mass | 725 | 6.8 × 10^4 | – | –
